Ends that are not written are not given here.
Legend:
[1] = test system: C. albicans MYA-2876; assay: MIC, YPD broth; format: cell-based, Candida albicans; conditions: Table 8
Procedure: (§1) MIC determination. MICs were measured using peptides with 95% purity. For bacterial studies, cation-adjusted Mueller Hinton (MH) broth was used as the growth medium whereas Yeast Peptone Dextrose (YPD; 10 g/L yeast extract, 20 g/L peptone, 20 g/L dextrose) was used for Candida spp. and other yeast. Microorganisms were diluted to an optical density of […] in MH or YPD broth and a 180 μl volume was mixed with 20 μl of peptide arrayed as a 2-fold dilution series in a flat-bottom 96-well microtitre plate. A control was performed using 20 μl of sterile water. Plates were incubated as standing cultures overnight at 37° C.
(§2) Determination of minimum inhibitory concentrations. The MICs were measured for bioactive peptides identified from the initial screen. For bacterial studies, cation-adjusted Mueller Hinton (MH) broth was used as the growth medium whereas YPD was used for C. albicans. Bacterial cultures were diluted to a OD value of 6×10^−4 in MH broth and a 180 μl volume was mixed with 20 μl of peptide arrayed as 2-fold dilution series in a 96-well plate. For the positive control, 20 μl of sterile water was used. Plates were incubated as standing cultures overnight at 37° C. The lowest peptide concentration that resulted no observed microbial growth after an overnight treatment was defined as the MIC.

[2] = test system: S. aureus ATCC BAA-44 (MRSA SCCmec type I); assay: MIC, broth dilution; format: cell-based, Staphylococcus aureus; conditions: Table 5; STIP3 variants, highest concentration 100 μg/mL
Procedure: as §1, §2

[3] = test system: S. aureus ATCC BAA-41 (MRSA SCCmec type II); assay: MIC, broth dilution; format: cell-based, Staphylococcus aureus; conditions: Table 5; STIP3 variants, highest concentration 100 μg/mL
Procedure: as §1, §2

[4] = test system: S. aureus ATCC 29213; assay: MIC, broth dilution; format: cell-based, Staphylococcus aureus; conditions: Table 5; STIP3 variants, highest concentration 100 μg/mL
Procedure: as §1, §2

[5] = test system: S. aureus ATCC BAA-2094 (MRSA SCCmec type V); assay: MIC, broth dilution; format: cell-based, Staphylococcus aureus; conditions: Table 5; STIP3 variants, highest concentration 100 μg/mL
Procedure: as §1, §2

[6] = test system: S. aureus ATCC 33592 (MRSA SCCmec type III); assay: MIC, broth dilution; format: cell-based, Staphylococcus aureus; conditions: Table 5; STIP3 variants, highest concentration 100 μg/mL
Procedure: as §1, §2

[7] = test system: S. aureus ATCC BAA-2313 (MRSA SCCmec type XI); assay: MIC, broth dilution; format: cell-based, Staphylococcus aureus; conditions: Table 5; STIP3 variants, highest concentration 100 μg/mL
Procedure: as §1, §2

[8] = test system: S. aureus ATCC BAA-1683 (MRSA SCCmec type IV); assay: MIC, broth dilution; format: cell-based, Staphylococcus aureus; conditions: Table 5; STIP3 variants, highest concentration 100 μg/mL
Procedure: as §1, §2

[9] = test system: S. aureus ATCC BAA-42 (MRSA SCCmec type VI); assay: MIC, broth dilution; format: cell-based, Staphylococcus aureus; conditions: Table 5; STIP3 variants, highest concentration 100 μg/mL
Procedure: as §1, §2

[10] = test system: Mannheimia haemolytica ATCC 33393; assay: MIC, broth dilution; format: cell-based; conditions: Table 11; highest concentration 25 μg/mL
Procedure: as §1, §2
The ability of STIP3 variants to inhibit the growth of Mannheimia haemolytica ATCC 33393 was evaluated. This included an alanine scan of STIP3-1 (FIG. 8 & Table 10) as well as 30 rationally-designed STIPs that were evaluated in the preceding Examples against other pathogens (Table 11). Substitutions at a greater number of sites were tolerated in the context of antimicrobial activity. Moreover, the inclusion of basic natural and unnatural amino acids (e.g. lysine, ornithine, and arginine) at positions 3, 4 and 11 (i.e. X1, X2, and X4 of SEQ ID NO: 32) to afford a more uniformly cationic peptide increased activity against M. haemolytica.

[11] = test system: Kodamae ohmeri AR 396; assay: MIC, YPD broth, CDC and FDA AR Candida isolate panel; format: cell-based; conditions: Table 9 below the line: only 200 or 100 μg/mL tested; values reported as 100 are ≤100 μg/mL
Procedure: as §1

[12] = test system: Candida haemulonii AR 395; assay: as above; format: cell-based; conditions: Table 9 below the line: only 200 or 100 μg/mL tested; values reported as 100 are ≤100 μg/mL
Procedure: as §1

[13] = test system: Saccharomyces cerevisiae AR 399; assay: as above; format: cell-based; conditions: Table 9 below the line: only 200 or 100 μg/mL tested; values reported as 100 are ≤100 μg/mL
Procedure: as §1

[14] = test system: Candida duobushaemulonii AR 392; assay: as above; format: cell-based; conditions: Table 9 below the line: only 200 or 100 μg/mL tested; values reported as 100 are ≤100 μg/mL
Procedure: as §1

[15] = test system: Candida duobushaemulonii AR 394; assay: as above; format: cell-based; conditions: Table 9 below the line: only 200 or 100 μg/mL tested; values reported as 100 are ≤100 μg/mL
Procedure: as §1

[16] = test system: Candida haemulonii AR 393; assay: as above; format: cell-based; conditions: Table 9 below the line: only 200 or 100 μg/mL tested; values reported as 100 are ≤100 μg/mL
Procedure: as §1

[17] = test system: Candida duobushaemulonii AR 391; assay: as above; format: cell-based; conditions: Table 9 below the line: only 200 or 100 μg/mL tested; values reported as 100 are ≤100 μg/mL
Procedure: as §1

[18] = test system: Candida krusei AR 397; assay: as above; format: cell-based; conditions: Table 9 below the line: only 200 or 100 μg/mL tested; values reported as 100 are ≤100 μg/mL
Procedure: as §1

[19] = test system: Saccharomyces cerevisiae AR 400; assay: as above; format: cell-based; conditions: Table 9 below the line: only 200 or 100 μg/mL tested; values reported as 100 are ≤100 μg/mL
Procedure: as §1

[20] = test system: Candida lusitaniae AR 398; assay: as above; format: cell-based; conditions: Table 9 below the line: only 200 or 100 μg/mL tested; values reported as 100 are ≤100 μg/mL
Procedure: as §1

Row | Sequence | MIC C. albicans MYA-2876 [1] | MIC S. aureus ATCC BAA 44 (I) [2] | MIC S. aureus ATCC BAA 41 (II) [3] | MIC S. aureus ATCC 29213 [4] | MIC S. aureus ATCC BAA 2094 (V) [5] | MIC S. aureus ATCC 33592 (III) [6] | MIC S. aureus ATCC BAA 2313 (XI) [7] | MIC S. aureus ATCC BAA 1683 (IV) [8] | MIC S. aureus ATCC BAA 42 (VI) [9] | MIC (μg/mL) M. haemolytica [10] | MIC (μg/mL) Kodamae ohmeri AR 396 [11] | MIC (μg/mL) Candida haemulonii AR 395 [12] | MIC (μg/mL) Saccharomyces cerevisiae AR 399 [13] | MIC (μg/mL) Candida duobushaemulonii AR 392 [14] | MIC (μg/mL) Candida duobushaemulonii AR 394 [15] | MIC (μg/mL) Candida haemulonii AR 393 [16] | MIC (μg/mL) Candida duobushaemulonii AR 391 [17] | MIC (μg/mL) Candida krusei AR 397 [18] | MIC (μg/mL) Saccharomyces cerevisiae AR 400 [19] | MIC (μg/mL) Candida lusitaniae AR 398 [20]
1 | TVGGLVKWILKAVKKFA [STIP3-13, TVGGLVKWILKAVKKFA] | 50 µg/mL | 25 µg/mL | 12.5 µg/mL | 25 µg/mL | 25 µg/mL | 25 µg/mL | 25 µg/mL | 25 µg/mL | 25 µg/mL | 12.5 µg/mL | > (values below the line were determined using two concentrations of peptide 200 or 100 μg/mL) | > (values below the line were determined using two concentrations of peptide 200 or 100 μg/mL) | ≤ 100 µg/mL | ≤ 100 µg/mL | ≤ 100 µg/mL | > (values below the line were determined using two concentrations of peptide 200 or 100 μg/mL) | ≤ 100 µg/mL | ≤ 100 µg/mL | ≤ 100 µg/mL | ≤ 100 µg/mL
2 | TVGVLVKWILDTVKKFA [STIP3-8, TVGVLVKWILDTVKKFA] | > (> symbol indicates that no inhibition was observed at the highest concentration of peptide tested: 100 μg/mL) | 100 µg/mL | 100 µg/mL | 100 µg/mL | 100 µg/mL | 100 µg/mL | 100 µg/mL | > (no inhibition was observed at the highest concentration of peptide tested: 100 μg/mL for the STIP3 variants) | 100 µg/mL | > (> symbol indicates that no inhibition was observed at the highest concentration of peptide tested: 25 μg/mL) | > (values below the line were determined using two concentrations of peptide 200 or 100 μg/mL) | > (values below the line were determined using two concentrations of peptide 200 or 100 μg/mL) | ≤ 100 µg/mL | > (values below the line were determined using two concentrations of peptide 200 or 100 μg/mL) | > (values below the line were determined using two concentrations of peptide 200 or 100 μg/mL) | > (values below the line were determined using two concentrations of peptide 200 or 100 μg/mL) | > (values below the line were determined using two concentrations of peptide 200 or 100 μg/mL) | ≤ 100 µg/mL | ≤ 100 µg/mL | 180 µg/mL
3 | TVGGLVKWILDWVKKFA [STIP3-10, TVGGLVKWILDWVKKFA] | 50 µg/mL | 200 µg/mL | 100 µg/mL | 100 µg/mL | 100 µg/mL | 100 µg/mL | 50 µg/mL | > (no inhibition was observed at the highest concentration of peptide tested: 100 μg/mL for the STIP3 variants) | 25 µg/mL | > (> symbol indicates that no inhibition was observed at the highest concentration of peptide tested: 25 μg/mL) | > (values below the line were determined using two concentrations of peptide 200 or 100 μg/mL) | > (values below the line were determined using two concentrations of peptide 200 or 100 μg/mL) | > (values below the line were determined using two concentrations of peptide 200 or 100 μg/mL) | > (values below the line were determined using two concentrations of peptide 200 or 100 μg/mL) | > (values below the line were determined using two concentrations of peptide 200 or 100 μg/mL) | > (values below the line were determined using two concentrations of peptide 200 or 100 μg/mL) | > (values below the line were determined using two concentrations of peptide 200 or 100 μg/mL) | > (values below the line were determined using two concentrations of peptide 200 or 100 μg/mL) | ≤ 100 µg/mL | > (values below the line were determined using two concentrations of peptide 200 or 100 μg/mL)
4 | TVGGLVKWILDTFKKFA [STIP3-11, TVGGLVKWILDTFKKFA] | 25 µg/mL | 100 µg/mL | 50 µg/mL | 50 µg/mL | 100 µg/mL | 50 µg/mL | 100 µg/mL | 50 µg/mL | 50 µg/mL | > (> symbol indicates that no inhibition was observed at the highest concentration of peptide tested: 25 μg/mL) | > (values below the line were determined using two concentrations of peptide 200 or 100 μg/mL) | > (values below the line were determined using two concentrations of peptide 200 or 100 μg/mL) | ≤ 100 µg/mL | > (values below the line were determined using two concentrations of peptide 200 or 100 μg/mL) | > (values below the line were determined using two concentrations of peptide 200 or 100 μg/mL) | > (values below the line were determined using two concentrations of peptide 200 or 100 μg/mL) | > (values below the line were determined using two concentrations of peptide 200 or 100 μg/mL) | ≤ 100 µg/mL | ≤ 100 µg/mL | ≤ 100 µg/mL

Reference: patent US12370235B2, “Synthetic, non-natural antimicrobial peptides inspired by Staphylococcus auricularis delta toxin” (University of Saskatchewan, priority 2021, dated 2025)
